Measurements taken from ChEMBL document CHEMBL1201862, “PubChem BioAssay data set” (2004).
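Values below derive from 48-hour exposures of cells grown in 96-well plates, with endpoints linearly interpolated between the two concentrations bracketing the appropriate inhibition level. At the GI50, growth is halved.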 Active and inactive are the calls of the source. Rule as the data show it: active = GI50 up to about 1.1 µM and inactive = higher.

Columns and labels:
Assay in all cases: NCI anticancer screen, dose series, 48 h
TK-10 = system: TK-10
NCI/ADR-RES = system: NCI/ADR-RES
UACC-257 = system: UACC-257
HL-60 = system: HL-60
CCRF-CEM = system: CCRF-CEM
NCI-H226 = system: NCI-H226
DU-145 = system: DU-145
MDA-N = system: MDA-N
SF-539 = system: SF-539
CAKI-1 = system: CAKI-1
KM12 = system: KM12
SN12C = system: SN12C
MOLT-4 = system: MOLT-4
786-0 = system: 786-0
OVCAR-4 = system: OVCAR-4
SNB-75 = system: SNB-75
HCC 2998 = system: HCC 2998
OVCAR-5 = system: OVCAR-5
EKVX = system: EKVX
HCT-116 = system: HCT-116
Malme-3M = system: Malme-3M
SW-620 = system: SW-620
A498 = system: A498
SK-MEL-28 = system: SK-MEL-28
UACC-62 = system: UACC-62
BT-549 = system: BT-549
MDA-MB-231 = system: MDA-MB-231
LOX IMVI = system: LOX IMVI
HOP-62 = system: HOP-62
NCI-H23 = system: NCI-H23
OVCAR-3 = system: OVCAR-3
Hs-578T = system: Hs-578T
ACHN = system: ACHN
SK-OV-3 = system: SK-OV-3
PC-3 = system: PC-3
SNB-19 = system: SNB-19
U-251 = system: U-251
COLO 205 = system: COLO 205
SK-MEL-5 = system: SK-MEL-5
IGROV-1 = system: IGROV-1
NCI-H460 = system: NCI-H460
RXF 393 = system: RXF 393
MDA-MB-435 = system: MDA-MB-435
HCT-15 = system: HCT-15
SF-268 = system: SF-268
UO-31 = system: UO-31
M14 = system: M14
A549 = system: A549
NCI-H522 = system: NCI-H522
SF-295 = system: SF-295
SK-MEL-2 = system: SK-MEL-2
T47D = system: T47D
OVCAR-8 = system: OVCAR-8
RPMI-8226 = system: RPMI-8226
K562 = system: K562
HT-29 = system: HT-29

`CNNC1=NS(=O)(=O)c2cc(C)c(Cl)cc2S1` was tested, and the GI50 (TK-10) was > 10 µM (inactive), the GI50 (NCI/ADR-RES) was > 10 µM (inactive) and the GI50 (UACC-257) was > 10 µM (inactive). The GI50 (HL-60) was > 10 µM (inactive), the GI50 (CCRF-CEM) was > 10 µM (inactive) and the GI50 (NCI-H226) was > 10 µM (inactive). For the same compound, the GI50 (DU-145) was > 10 µM (inactive), the GI50 (MDA-N) was > 10 µM (inactive) and the GI50 (SF-539) was > 10 µM (inactive). For the same compound, the GI50 (CAKI-1) was > 10 µM (inactive), the GI50 (KM12) was > 10 µM (inactive) and the GI50 (SN12C) was > 10 µM (inactive). The GI50 (MOLT-4) was > 10 µM (inactive), the GI50 (786-0) was > 10 µM (inactive) and the GI50 (OVCAR-4) was > 10 µM (inactive). For the same compound, the GI50 (SNB-75) was > 10 µM (inactive), the GI50 (HCC 2998) was > 10 µM (inactive) and the GI50 (OVCAR-5) was > 10 µM (inactive). For the same compound, the GI50 (EKVX) was > 10 µM (inactive), the GI50 (HCT-116) was > 10 µM (inactive) and the GI50 (Malme-3M) was > 10 µM (inactive). For the same compound, the GI50 (SW-620) was > 10 µM (inactive), the GI50 (A498) was > 10 µM (inactive) and the GI50 (SK-MEL-28) was > 10 µM (inactive). For the same compound, the GI50 (UACC-62) was > 10 µM (inactive), the GI50 (BT-549) was > 10 µM (inactive) and the GI50 (MDA-MB-231) was > 10 µM (inactive). For the same compound, the GI50 (LOX IMVI) was > 10 µM (inactive), the GI50 (HOP-62) was > 10 µM (inactive) and the GI50 (NCI-H23) was > 10 µM (inactive). The GI50 (OVCAR-3) was > 10 µM (inactive), the GI50 (Hs-578T) was > 10 µM (inactive) and the GI50 (ACHN) was > 10 µM (inactive). The GI50 (SK-OV-3) was > 10 µM (inactive), the GI50 (PC-3) was > 10 µM (inactive) and the GI50 (SNB-19) was > 10 µM (inactive). The GI50 (U-251) was > 10 µM (inactive), the GI50 (COLO 205) was > 10 µM (inactive) and the GI50 (SK-MEL-5) was > 10 µM (inactive). For the same compound, the GI50 (IGROV-1) was > 10 µM (inactive), the GI50 (NCI-H460) was > 10 µM (inactive) and the GI50 (RXF 393) was > 10 µM (inactive). For the same compound, the GI50 (MDA-MB-435) was > 10 µM (inactive), the GI50 (HCT-15) was over 10 µM and the GI50 (SF-268) was > 10 µM (inactive). For the same compound, the GI50 (UO-31) was 0.0344 µM (active), the GI50 (M14) was > 10 µM (inactive) and the GI50 (A549) was > 10 µM (inactive). For the same compound, the GI50 (NCI-H522) was > 10 µM (inactive), the GI50 (SF-295) was > 10 µM (inactive) and the GI50 (SK-MEL-2) was > 10 µM (inactive). The GI50 (T47D) was > 10 µM (inactive), the GI50 (OVCAR-8) was > 10 µM (inactive) and the GI50 (RPMI-8226) was > 10 µM (inactive). The GI50 (K562) was > 10 µM (inactive) and the GI50 (HT-29) was > 10 µM (inactive).
